Key:
Assay in all cases: Test B pre-/postemergence plant response
Assay type in all cases: in vivo
[1] = system: velvetleaf (Abutilon theophrasti); settings: for Velvetleaf plant response rating: 8 g ai/ha
Outline: (§1)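 Visual scoring from 0 (no effect) to 100 (complete control) against untreated controls was done 13 to 15 days after greenhouse treatment. Chemicals were formulated in a surfactant-containing non-phytotoxic solvent and applied to soil preemergence or to 1- to 4-leaf (2-18 cm) plants postemergence.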

[2] = system: lambsquarters (Chenopodium album); settings: for Lambsquarters plant response rating: 8 g ai/ha
Outline: as §1

[3] = system: common (oilseed) sunflower (Helianthus annuus); settings: Preemergence
Outline: as §1

wild oat (Avena fatua) = settings: for Oat, Wild plant response rating: 8 g ai/ha
Outline: as §1

[4] = system: common ragweed (Ambrosia elation); settings: for Ragweed plant response rating: 8 g ai/ha
Outline: as §1

[5] = system: blackgrass (Alopecurus myosuroides); settings: for Blackgrass plant response rating: 8 g ai/ha
Outline: as §1

[6] = system: downy bromegrass (Bromus tectorum); settings: for Bromegrass, Downy plant response rating: 8 g ai/ha
Outline: as §1

[7] = system: giant foxtail (Setaria faberii); settings: for Foxtail, Giant plant response rating: 8 g ai/ha
Outline: as §1

[8] = system: catchweed bedstraw (Galium aparine); settings: Preemergence
Outline: as §1

[9] = system: woolly cupgrass (Eriochloa villosa); settings: for Cupgrass, Woolly plant response rating: 8 g ai/ha
Outline: as §1

[10] = system: pigweed (Amaranthus retroflexus); settings: for Pigweed plant response rating: 8 g ai/ha
Outline: as §1

kochia (Kochia scoparia) = settings: for Kochia plant response rating: 8 g ai/ha
Outline: as §1

[11] = system: yellow nutsedge (Cyperus esculentus); settings: for Nutsedge, Yellow plant response rating: 8 g ai/ha
Outline: as §1

corn (Zea mays) = settings: for Corn plant response rating: 8 g ai/ha
Outline: as §1

[12] = Postemergence, 16 g ai/ha, scale 0 to 100
[13] = Postemergence, 62 g ai/ha, scale 0 to 100, 0 no effect, 100 complete control
[14] = Preemergence, 16 g ai/ha, scale 0 to 100 (0 no effect, 100 complete control)
[15] = Preemergence, 31 g ai/ha, scale 0 to 100 (0 no effect, 100 complete control)
[16] = Postemergence, 31 g ai/ha, scale 0 to 100, 0 no effect, 100 complete control
[17] = Preemergence, 31 g ai/ha, 0 to 100 scale, 0 no effect, 100 complete control
[18] = Preemergence, 62 g ai/ha, scale 0 to 100
[19] = 16 g ai/ha, scale 0 to 100 (0 no effect, 100 complete control)

CCCc1cc(-c2ccc(Cl)cc2)nn1-c1c(O)cnn(C)c1=O [Compound 43]
Velvetleaf plant response rating ([1]; postemergence, 0-100 scale): 0 | Plant response rating, Velvetleaf [1, 12]: 0 | Plant response rating, Velvetleaf [1, 13]: 0 | Plant response rating, Velvetleaf [1, 14]: 0 | Plant response rating, Velvetleaf [1, 15]: 0 | Plant response rating, Velvetleaf ([1]; Preemergence, 62 g ai/ha, 0 to 100 scale, 0 no effect, 100 complete control): 0 | Velvetleaf plant response rating ([1]; Preemergence, scale 0 to 100): 0 | Lambsquarters plant response rating ([2]; postemergence, 0-100 scale): 0 | Plant response rating, Lambsquarters [2, 12]: 0 | Plant response rating, Lambsquarters [2, 16]: 0 | Plant response rating, Lambsquarters [2, 13]: 0 | Plant response rating, Lambsquarters [2, 14]: 0 | Plant response rating, Lambsquarters [2, 17]: 0 | Plant response rating, Lambsquarters [2, 18]: 0 | Lambsquarters plant response rating ([2]; Preemergence, scale 0 to 100): 0 | Plant response rating, Sunflower [3, 19]: 0 | Plant response rating, Sunflower ([3]; 31 g ai/ha, scale 0 to 100 (0 no effect, 100 complete control)): 0 | Plant response rating, Sunflower ([3]; 62 g ai/ha, scale 0 to 100): 0 | Sunflower plant response rating ([3]; 8 g ai/ha, scale 0 to 100): 0 | Oat, Wild plant response rating (wild oat (Avena fatua); postemergence, 0-100 scale): 95 | Plant response rating, Oat, Wild (wild oat (Avena fatua); [12]): 100 | Plant response rating, Oat, Wild (wild oat (Avena fatua); [16]): 100 | Plant response rating, Oat, Wild (wild oat (Avena fatua); [13]): 100 | Plant response rating, Oat, Wild (wild oat (Avena fatua); [14]): 90 | Plant response rating, Oat, Wild (wild oat (Avena fatua); [15]): 95 | Plant response rating, Oat, Wild (wild oat (Avena fatua); [18]): 95 | Oat, Wild plant response rating (wild oat (Avena fatua); Preemergence, scale 0 to 100): 70 | Ragweed plant response rating ([4]; postemergence, 0-100 scale): 0 | Plant response rating, Ragweed [4, 12]: 0 | Plant response rating, Ragweed [4, 16]: 0 | Plant response rating, Ragweed [4, 13]: 0 | Plant response rating, Ragweed [4, 14]: 0 | Plant response rating, Ragweed [4, 15]: 0 | Plant response rating, Ragweed [4, 18]: 0 | Ragweed plant response rating ([4]; Preemergence, scale 0 to 100): 0 | Blackgrass plant response rating ([5]; postemergence, 0-100 scale): 85 | Plant response rating, Blackgrass [5, 12]: 85 | Plant response rating, Blackgrass [5, 16]: 95 | Plant response rating, Blackgrass [5, 13]: 100 | Plant response rating, Blackgrass [5, 14]: 95 | Plant response rating, Blackgrass [5, 17]: 100 | Plant response rating, Blackgrass [5, 18]: 100 | Blackgrass plant response rating ([5]; Preemergence, scale 0 to 100): 70 | Bromegrass, Downy plant response rating ([6]; postemergence, 0-100 scale): 40 | Plant response rating, Bromegrass, Downy [6, 12]: 45 | Plant response rating, Bromegrass, Downy [6, 16]: 60 | Plant response rating, Bromegrass, Downy [6, 13]: 65 | Plant response rating, Bromegrass, Downy [6, 14]: 0 | Plant response rating, Bromegrass, Downy [6, 17]: 70 | Plant response rating, Bromegrass, Downy [6, 18]: 80 | Bromegrass, Downy plant response rating ([6]; Preemergence, scale 0 to 100): 0 | Foxtail, Giant plant response rating ([7]; postemergence, 0-100 scale): 85 | Plant response rating, Foxtail, Giant [7, 12]: 98 | Plant response rating, Foxtail, Giant [7, 16]: 98 | Plant response rating, Foxtail, Giant [7, 13]: 100 | Plant response rating, Foxtail, Giant [7, 14]: 100 | Plant response rating, Foxtail, Giant [7, 17]: 100 | Plant response rating, Foxtail, Giant [7, 18]: 100 | Foxtail, Giant plant response rating ([7]; Preemergence, scale 0 to 100): 95 | Plant response rating, Galium [8, 19]: 0 | Plant response rating, Galium ([8]; 31 g ai/ha, 0 to 100 scale, 0 no effect, 100 complete control): 0 | Plant response rating, Galium ([8]; 62 g ai/ha, scale 0 to 100): 0 | Galium plant response rating ([8]; 8 g ai/ha, scale 0 to 100): 0 | Cupgrass, Woolly plant response rating ([9]; postemergence, 0-100 scale): 80 | Plant response rating, Cupgrass, Woolly [9, 12]: 90 | Plant response rating, Cupgrass, Woolly [9, 16]: 95 | Plant response rating, Cupgrass, Woolly [9, 13]: 95 | Plant response rating, Cupgrass, Woolly [9, 14]: 60 | Plant response rating, Cupgrass, Woolly [9, 17]: 98 | Plant response rating, Cupgrass, Woolly [9, 18]: 100 | Cupgrass, Woolly plant response rating ([9]; Preemergence, scale 0 to 100): 0 | Pigweed plant response rating ([10]; postemergence, 0-100 scale): 0 | Plant response rating, Pigweed [10, 12]: 0 | Plant response rating, Pigweed [10, 16]: 0 | Plant response rating, Pigweed [10, 13]: 0 | Plant response rating, Pigweed [10, 14]: 0 | Plant response rating, Pigweed [10, 15]: 0 | Plant response rating, Pigweed [10, 18]: 0 | Pigweed plant response rating ([10]; Preemergence, scale 0 to 100): 0 | Kochia plant response rating (kochia (Kochia scoparia); postemergence, 0-100 scale): 0 | Plant response rating, Kochia (kochia (Kochia scoparia); [12]): 0 | Plant response rating, Kochia (kochia (Kochia scoparia); [16]): 0 | Plant response rating, Kochia (kochia (Kochia scoparia); [13]): 0 | Plant response rating, Kochia (kochia (Kochia scoparia); [14]): 0 | Plant response rating, Kochia (kochia (Kochia scoparia); [17]): 0 | Plant response rating, Kochia (kochia (Kochia scoparia); [18]): 0 | Kochia plant response rating (kochia (Kochia scoparia); Preemergence, scale 0 to 100): 0 | Nutsedge, Yellow plant response rating ([11]; postemergence, 0-100 scale): 0 | Plant response rating, Nutsedge, Yellow [11, 12]: 0 | Plant response rating, Nutsedge, Yellow [11, 16]: 0 | Plant response rating, Nutsedge, Yellow [11, 13]: 0 | Plant response rating, Nutsedge, Yellow [11, 14]: 0 | Plant response rating, Nutsedge, Yellow [11, 15]: 0 | Plant response rating, Nutsedge, Yellow [11, 18]: 0 | Nutsedge, Yellow plant response rating ([11]; Preemergence, scale 0 to 100): 0 | Corn plant response rating (corn (Zea mays); postemergence, 0-100 scale): 80 | Plant response rating, Corn (corn (Zea mays); [12]): 85 | Plant response rating, Corn (corn (Zea mays); [16]): 85 | Plant response rating, Corn (corn (Zea mays); [13]): 100 | Plant response rating, Corn (corn (Zea mays); [14]): 70 | Plant response rating, Corn (corn (Zea mays); [17]): 85 | Plant response rating, Corn (corn (Zea mays); [18]): 100 | Corn plant response rating (corn (Zea mays); Preemergence, scale 0 to 100): 0

From patent US20100267561A1, “HERBICIDAL PYRIDAZINONE DERIVATIVES” (priority 2007, published 2010)
